Experimental data: patent US20160320384A1, “METHODS FOR ASSAYING IMMUNOLOGICAL COMPETENCE” (YEDA RESEARCH AND DEVELOPMENT CO. LTD., priority 2013, published 2016)

Columns and labels:
serum IgM antibodies = test: Serum IgM antibody binding to oligonucleotides on antigen microarray; design: species or system human; settings: for IgM reactivities compared to T17: individual subjects (FIGS. 5A-B); for IgM binding compared to G17: individual subjects (FIG. 4)
Protocol: (§1) In a follow-up study, sera samples obtained from 23 healthy subjects, 24 SSc patients, and 49 SLE patients were tested using an antigen microarray that included 58 single-stranded oligonucleotides. Overall, 60 SLE patients, 26 SSc patients, 18 PV patients, and 31 healthy subjects were tested.
(§2) In a follow-up study, 58 different oligonucleotides, as well as double and single stranded DNA, in various lengths (104 different preparations overall), were spotted on epoxy-activated glass substrates (ArrayIt SuperEpoxi microarray substrate slides, Sunnyvale, Calif.). […] The microarrays were then blocked for 1 hour at 37° with 1% bovine serum albumin. Test serum samples in 1% Bovine Serum Albumin (BSA) blocking buffer (1:10 dilution) were incubated under a coverslip for 1 hour at 37°. The arrays were then washed and incubated for 1 hour at 37° with a 1:500 dilution of two detection antibodies, mixed together: a goat anti-human IgG Cy3-conjugated antibody, and a goat anti-human IgM Cy5-conjugated antibody (both purchased from Jackson ImmunoResearch Laboratories Inc., West Grove, Pa.). Image acquisition was performed by laser (Agilent Technologies, Santa Clara, Calif.) and the results were analyzed using Quantarray software (Packard BioChip Technologies, Billerica, Mass.). The quantitative range of signal intensity of binding to each antigen spot was 0-65,000; this range of detection made it possible to obtain reliable data at a 1:10 dilution of test serum samples.
(§3) Alternatively, oligonucleotides and double and single stranded DNA in various chain lengths were spotted on epoxyhexyltriethoxysilane (EHTES) activated slides. The microarrays were then blocked for 1 hour at room temperature with 1% casein. Test serum samples in 1% casein blocking buffer (1:20 dilution) were incubated under a coverslip for 1 hour at 37°. The arrays were then washed and incubated for 1 hour at 37° with a 1:500 dilution of two detection antibodies, mixed together: a goat anti-human IgG Cy3-conjugated antibody, and a goat anti-human IgM AF647-conjugated antibody (both purchased from Jackson ImmunoResearch Laboratories Inc., West Grove, Pa.). Image acquisition was performed by laser at two wavelengths 530 nm and 630 nm (Agilent Technologies, Santa Clara, Calif.) and the results were analyzed using Genepix Pro 7.0 software with default settings. The quantitative range of signal intensity of binding to each antigen spot was 0-65,000; this range of detection made it possible to obtain reliable data at a 1:20 dilution of test samples.
(§4) Each spot's intensity is represented by its pixels' mean after subtraction of its local background median, followed by Log 2 transform. Negative spots (following background subtraction) are imputed with background-like intensity. The foreground and background intensities of multiple spots of each antigen were averaged, and the difference between the foreground and the background was calculated.

serum IgG antibodies = test: Serum IgG antibody binding to oligonucleotides on antigen microarray; design: species or system human; settings: for IgG reactivities compared to T17: individual subjects (FIGS. 5A-B); for IgG binding compared to G17: individual subjects (FIG. 4)
Protocol: as §1, §2, §3, §4

poly-G autoantibody = test: Poly-G autoantibody levels in kidney transplanted patients at baseline and 24 weeks after transplantation and immunosuppression (antigen microarray); assay type: in vivo, human; design: reduction in G14 IgM autoantibody intensity / reduction in G14 IgG autoantibody intensity / reduction in G40 IgM autoantibody intensity: concentration or dose not given beside the values
[1] = both studies combined: 60 SLE, 26 SSc, 18 PV patients, 31 healthy subjects
[2] = healthy subjects, SSc and PV patients (FIG. 1)
[3] = median intensity, 24 weeks after Tx vs baseline

Question: How did the “IgM reactivities compared to T17” value (serum IgM antibodies) turn out when “T16G2: modified T17 oligonucleotide (DNA TTTTTTTTTTTTTTTTGG; listed as DNA, chemistry not fully specified)” was run?
Answer: also increased compared to T17

Question: And the “IgG reactivities compared to T17” value (serum IgG antibodies)?
Answer: also increased compared to T17

Question: For “T16G1: poly-T chain with a single G at the 3′ end (DNA TTTTTTTTTTTTTTTTG; listed as DNA, chemistry not fully specified)”, which “IgM reactivities compared to T17” value (serum IgM antibodies) is on record?
Answer: increased in almost all the subjects

Question: And the “IgG reactivities compared to T17” value (serum IgG antibodies)?
Answer: increased in almost all the subjects

Question: With “A20: 20-mer adenine homo-nucleotide (AAAAAAAAAAAAAAAAAAAA; listed as DNA, chemistry not fully specified)” as the substance, how does the IgG reactivities (serum IgG antibodies; [1]) read?
Answer: relatively low reactivities

Question: What about the IgG reactivities (serum IgG antibodies; [2]) of the same substance?
Answer: very low or no reactivities

Question: Which results are given for “G2T16: modified T17 oligonucleotide (DNA GGTTTTTTTTTTTTTTTT; listed as DNA, chemistry not fully specified)”?
Answer: IgM reactivities compared to T17 (serum IgM antibodies): also increased compared to T17; IgG reactivities compared to T17 (serum IgG antibodies): also increased compared to T17

Question: “G1T16: poly-T chain with a single G at the 5′ end (DNA GTTTTTTTTTTTTTTTT; listed as DNA, chemistry not fully specified)” was tested. Which “IgM reactivities compared to T17” value (serum IgM antibodies) did it give?
Answer: increased in almost all the subjects

Question: And the “IgG reactivities compared to T17” value (serum IgG antibodies)?
Answer: increased in almost all the subjects

Question: With “G17: poly-guanine oligonucleotide antigen, 17 guanines (GGGGGGGGGGGGGGGGG; listed as DNA, chemistry not fully specified)” as the substance, how does the “mean IgG reactivities as a function of chain length” value (serum IgG antibodies; healthy, SSc, SLE dsDNA-negative and -positive groups (FIG. 3)) read?
Answer: fell significantly

Question: How did the IgG reactivities (serum IgG antibodies; [1]) turn out when “T20: 20-mer thymine homo-nucleotide (DNA TTTTTTTTTTTTTTTTTTTT)” was run?
Answer: relatively low reactivities

Question: And the IgG reactivities (serum IgG antibodies; [2])?
Answer: very low or no reactivities

Question: What does the source list for “G16T1: G16 with a single T added at the 3′ end (GGGGGGGGGGGGGGGGT; listed as DNA, chemistry not fully specified)”?
Answer: IgM binding compared to G17 (serum IgM antibodies): considerably less than the binding to G17; IgG binding compared to G17 (serum IgG antibodies): considerably less than the binding to G17

Question: “TGGGGGGGGGGGGGGGG (listed as DNA, chemistry not given here) [T1G16]” was tested. Which “IgM binding compared to G17” value (serum IgM antibodies) did it give?
Answer: essentially equal to the binding to the G17

Question: And the “IgG binding compared to G17” value (serum IgG antibodies)?
Answer: essentially equal to the binding to the G17

Question: What does the source list for belatacept?
Answer: patients in whom the reduction in poly-G autoantibody intensity was observed (poly-G autoantibody; 6 months post immunosuppression administration, 6 patients per group): observed in all belatacept patients; reduction in autoantibodies median intensity, combined poly-G reactivity (poly-G autoantibody; FIGS. 12A-B, 24 weeks after Tx vs baseline, belatacept vs CsA): greater reduction; Antibody level 24 weeks after transplantation and drug administration compared to baseline (%, median intensity): IgG levels against G14 (SEQ ID NO: 41) (poly-G autoantibody; kidney transplanted patients, serum, 24 weeks after Tx vs baseline, IgG, G14): 53%; Antibody level 24 weeks after transplantation and drug administration compared to baseline (%, median intensity): IgG levels against G17 (SEQ ID NO: 36) (poly-G autoantibody; kidney transplanted patients, serum, 24 weeks after Tx vs baseline, IgG, G17): 70%; Antibody level 24 weeks after transplantation and drug administration compared to baseline (%, median intensity): IgG levels against G20 (SEQ ID NO: 43) (poly-G autoantibody; kidney transplanted patients, serum, 24 weeks after Tx vs baseline, IgG, G20): 58%; Antibody level 24 weeks after transplantation and drug administration compared to baseline (%, median intensity): IgG levels against G30 (SEQ ID NO: 65) (poly-G autoantibody; kidney transplanted patients, serum, 24 weeks after Tx vs baseline, IgG, G30): 67%; Antibody level 24 weeks after transplantation and drug administration compared to baseline (%, median intensity): IgG levels against G40 (SEQ ID NO: 66) (poly-G autoantibody; kidney transplanted patients, serum, 24 weeks after Tx vs baseline, IgG, G40): 81%; Antibody level 24 weeks after transplantation and drug administration compared to baseline (%, median intensity): IgM levels against G14 (SEQ ID NO: 41) (poly-G autoantibody; kidney transplanted patients, serum, 24 weeks after Tx vs baseline, IgM, G14): 45%; Antibody level 24 weeks after transplantation and drug administration compared to baseline (%, median intensity): IgM levels against G17 (SEQ ID NO: 36) (poly-G autoantibody; kidney transplanted patients, serum, 24 weeks after Tx vs baseline, IgM, G17): 63%; Antibody level 24 weeks after transplantation and drug administration compared to baseline (%, median intensity): IgM levels against G20 (SEQ ID NO: 43) (poly-G autoantibody; kidney transplanted patients, serum, 24 weeks after Tx vs baseline, IgM, G20): 63%; Antibody level 24 weeks after transplantation and drug administration compared to baseline (%, median intensity): IgM levels against G30 (SEQ ID NO: 65) (poly-G autoantibody; kidney transplanted patients, serum, 24 weeks after Tx vs baseline, IgM, G30): 59%; Antibody level 24 weeks after transplantation and drug administration compared to baseline (%, median intensity): IgM levels against G40 (SEQ ID NO: 66) (poly-G autoantibody; kidney transplanted patients, serum, 24 weeks after Tx vs baseline, IgM, G40): 72%; reduction in G14 IgG autoantibody intensity (poly-G autoantibody; [3]): 47%; reduction in G14 IgM autoantibody intensity (poly-G autoantibody; [3]): 55%; reduction in G17 IgG autoantibody intensity (poly-G autoantibody; [3]): 30%; reduction in G17 IgM autoantibody intensity (FIG. 8A) (poly-G autoantibody; [3]): 37%; reduction in G20 IgG autoantibody intensity (poly-G autoantibody; [3]): 42%; reduction in G20 IgM autoantibody intensity (poly-G autoantibody; [3]): 37%; reduction in G30 IgG autoantibody intensity (poly-G autoantibody; [3]): 33%; reduction in G30 IgM autoantibody intensity (poly-G autoantibody; [3]): 41%; reduction in G40 IgG autoantibody intensity (poly-G autoantibody; [3]): 19%; reduction in G40 IgM autoantibody intensity (poly-G autoantibody; [3]): 28%

Question: Which IgM reactivities (serum IgM antibodies; healthy subjects, SSc and SLE patients (FIG. 6)) does the source give for “CGCGCGCGCGCGCGCGCGCG (listed as DNA, chemistry not given here) [(CG)10]” here?
Answer: high in all but one of the healthy subjects, in all of the SSc patients and in most of the SLE patients

Question: And the IgG reactivities (serum IgG antibodies; group of SLE patients, mainly positive for anti-dsDNA (FIG. 6))?
Answer: high IgG reactivities
